In publication PMC10415282, “High resolution cryo-EM and crystallographic snapshots of the actinobacterial two-in-one 2-oxoglutarate dehydrogenase” (Nature Communications, 2023):

Assays:
OdhA = target: T1, OdhA (Corynebacterium glutamicum, UniProt Q8NRC3); test: cryo-EM structure, […] Å; type: binding; conditions: E2o active site; ThDP-Mg and acetyl-CoA also bound
T1 construct: full length residues 1-1221, E. coli BL21(DE3), N-terminal His6-TEV tag cleaved for cryo-EM (OdhA-His6 kept for SPR); homohexamer, ~800 kDa

MsKGD-GarA complex = target: T2, MsKGD-GarA complex (Mycolicibacterium smegmatis, UniProt A0R2B1); test: crystal structure, […] Å; type: binding; conditions: Mg2+; 2 mM ThDP, 5 mM MgCl2, pH 8.0; GarA bound, resting conformation
T2 construct: gene kgd; with Glycogen accumulation regulator GarA

SMILES | cryo-EM structure, 2.1 Å (OdhA) | crystal structure, 4.6 Å (MsKGD-GarA complex)
CC(C)(COP(=O)(O)OP(=O)(O)OC[C@H]1O[C@@H](n2cnc3c(N)ncnc32)[C@H](O)[C@@H]1OP(=O)(O)O)[C@@H](O)C(=O)NCCC(=O)NCCSC(=O)CCC(=O)O [succinyl-CoA] | succinyl-CoA binds to the same domain with its 2-phosphoadenosine moiety superimposable | –
Cc1ncc(C[n+]2csc(CCOP(=O)(O)OP(=O)(O)O)c2C)c(N)n1 [ThDP] | – | The E1o dimers containing the Mg-ThDP compose the blades
